Measured values: patent US20240010693A1, “PEPTIDES FROM HUMAN B-CASEIN THAT HAVE ANTI-BACTERIAL ACTIVITY” (priority 2020, published 2024)
Entries after “also recorded” stand apart in the source; their conditions may differ.

Assays:
Porphyromonas gingivalis = test: Kill assay on TSA plates (5% difibrinated blood); format: cell-based
Excerpt: Porphyromonas gingivalis (a keystone pathogen in chronic periodontitis, and identified in the brains of Alzheimer's patients) is sensitive to HBCA1 and HBCA2 peptides.

[1] = test system: commensal Lactobacillus strains; test: Activity against commensal strains; format: cell-based; conditions: strains commonly found in infant and adult gut
K. pneunomiae = test: Killing of pathogenic bacteria; format: cell-based, K. pneumoniae
Procedure: (§1) All three peptides were tested using direct kills assays. Equal inoculums of indicated bacterial pathogens were incubated either with water (−) or 50 mg/ml of HBCA1, HBCA2 or HBCA2.C. Aliquots were spotted at T=0 min (start of incubation) and at 30 minutes post incubation (T=30 min) on LB-agar plates, and incubated at 37° C. overnight to see growth.

G. vaginalis = test: Direct kill assay on HBT bilayer Gardnerella media; format: cell-based, Gardnerella vaginalis
Procedure: When we subjected G. vaginalis to direct kill assays using HBCA1 and HBCA2, we observed that both peptides render G. vaginalis non-viable within 30 minutes, as indicated by loss of bacterial growth on HBT bilayer Gardnerella media (FIG. 9).

E. faecalis = test: Killing of pathogenic bacteria; format: cell-based
Procedure: as §1

S. enteritidis = test: Killing of pathogenic bacteria; format: cell-based
Procedure: as §1

L. monocytogenes = test: Killing of pathogenic bacteria; format: cell-based
Procedure: as §1

S. aureus (MRSA) = test: Killing of pathogenic bacteria; format: cell-based
Procedure: as §1

E. coli (EHEC) = test: Killing of pathogenic bacteria; format: cell-based
Procedure: as §1

[2] = test system: indicated bacterial pathogens; test: Direct kill assay; format: cell-based; conditions: 50 mg/ml
Procedure: as §1

P. aeruginosa = test: Direct kill assay; format: cell-based
Procedure: as §1

[3] = test system: commensal Bifidobacterium strains; test: Activity against commensal strains; format: cell-based; conditions: strains commonly found in infant and adult gut
[4] = test system: above-mentioned bacterial strains; test: Spot assays on bacterial lawns and direct kill assays of synthetic peptides; format: cell-based
Procedure: The fractions were dried and reconstituted in water and spotted onto Tryptic soy agar plates that were spread with 100 μL of select bacterial grown overnight in tryptic soy broth.
We have named them HBCA1 and HBCA2.
as §1

K. pneumoniae = test: Activity on TSA plates (FIG. 16); format: cell-based; conditions: 20 mg/ml and 10 mg/ml on TSA plates
Procedure: FIG. 16 depicts activity of HBCA2 peptide against K. pneumoniae at 20 mg/ml and 10 mg/ml on TSA plates.

Sequence: RVMPVLKSPTIP (listed as Homo sapiens) [HBCA2]
- killing of Porphyromonas gingivalis (Porphyromonas gingivalis): kills
- sensitivity of P. gingivalis (Porphyromonas gingivalis): sensitive
- speed of loss of viability of P. gingivalis (Porphyromonas gingivalis; upon mixing cells with peptide): rapid killing; also recorded: rapidly lose viability right at 0 minutes
- activity against commensal Lactobacillus strains [1]: no detected activity
- killing / viability of K. pneumoniae (K. pneunomiae): kills
- killing of Gardnerella vaginalis (G. vaginalis): kills
- killing of E. faecalis (E. faecalis): kills
- killing of S. enteritidis (S. enteritidis): kills
- killing of L. monocytogenes (L. monocytogenes): kills
- killing of S. aureus (MRSA) (S. aureus (MRSA)): kills
- killing of E. coli (EHEC) (E. coli (EHEC)): kills
- relative activity of the peptides in direct kill assays [2]: more potent in its activity than the larger HBCA1 peptide
- killing of P. aeruginosa (P. aeruginosa): kills
- loss of viability of P. aeruginosa (P. aeruginosa; 50 mg/ml, T=0 min): rapidly lost (while mixing at T0)
- activity against commensal Bifidobacterium strains [3]: no detected activity
- antibacterial activity [4]: showed antibacterial activity

Sequence: RVRPKLKSPRIP [HBCA2.4]
- relative potency against K. pneumoniae (K. pneumoniae): most potent of the HBCA peptides

Sequence: TVYTKGRVMPVLKSPTIPFFDPQI (listed as Homo sapiens) [HBCA1]
- sensitivity of P. gingivalis (Porphyromonas gingivalis): sensitive
- antibacterial activity [4]: showed antibacterial activity
